Experimental data reported in PubChem BioAssay (NCI).
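All cell lines were grown in 96-well plates and treated with compound for 48 hours. GI50 marks 50% less growth. TGI: total growth inhibition.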

Key:
Assay in all cases: growth of human tumour cells (NCI), 48 h
SK-OV-3 ovarian = system: SK-OV-3 ovarian
NCI-H226 lung = system: NCI-H226 lung
HCT-116 colon = system: HCT-116 colon
CCRF-CEM leukemia = system: CCRF-CEM leukemia
UACC-257 melanoma = system: UACC-257 melanoma
SF-295 CNS = system: SF-295 CNS
KM12 colon = system: KM12 colon
ACHN renal = system: ACHN renal
HL-60(TB) leukemia = system: HL-60(TB) leukemia
HCT-15 colon = system: HCT-15 colon
PC-3 prostate = system: PC-3 prostate
RPMI-8226 leukemia = system: RPMI-8226 leukemia
SNB-75 CNS = system: SNB-75 CNS
U251 CNS = system: U251 CNS
786-0 renal = system: 786-0 renal
COLO 205 colon = system: COLO 205 colon
OVCAR-3 ovarian = system: OVCAR-3 ovarian
SF-268 CNS = system: SF-268 CNS
HCC-2998 colon = system: HCC-2998 colon
SNB-19 CNS = system: SNB-19 CNS
NCI-H522 lung = system: NCI-H522 lung
OVCAR-5 ovarian = system: OVCAR-5 ovarian
MDA-MB-231 breast = system: MDA-MB-231 breast
NCI/ADR-RES ovarian = system: NCI/ADR-RES ovarian
SR leukemia = system: SR leukemia
T-47D breast = system: T-47D breast
TK-10 renal = system: TK-10 renal
NCI-H23 lung = system: NCI-H23 lung
HOP-92 NSCLC = system: HOP-92 NSCLC

Q: With `COc1cc(C(=O)c2c(-c3ccccc3)oc3c(OC)cccc23)cc(OC)c1O` as the compound, how does the GI50 (SK-OV-3 ovarian) read?
A: The GI50 was 0.765 µM.

Q: What about the TGI (SK-OV-3 ovarian) of the same compound?
A: Its TGI is over 100 µM.

Q: And the GI50 (NCI-H226 lung)?
A: Its GI50 is 3.1 µM.

Q: What about the TGI (NCI-H226 lung) of the same compound?
A: The TGI was over 100 µM.

Q: What about the GI50 (HCT-116 colon) of the same compound?
A: The GI50 was 0.563 µM.

Q: And the TGI (HCT-116 colon)?
A: The TGI was over 100 µM.

Q: And the GI50 (CCRF-CEM leukemia)?
A: The GI50 was 0.414 µM.

Q: And the TGI (CCRF-CEM leukemia)?
A: The TGI was over 100 µM.

Q: What about the GI50 (UACC-257 melanoma) of the same compound?
A: Its GI50 is 63.5 µM.

Q: And the TGI (UACC-257 melanoma)?
A: The TGI was over 100 µM.

Q: And the GI50 (SF-295 CNS)?
A: The GI50 was 0.569 µM.

Q: What about the TGI (SF-295 CNS) of the same compound?
A: Its TGI is over 21.5 µM.

Q: And the GI50 (KM12 colon)?
A: Its GI50 is 0.45 µM.

Q: And the TGI (KM12 colon)?
A: The TGI was over 51.2 µM.

Q: What about the GI50 (ACHN renal) of the same compound?
A: Its GI50 is 0.664 µM.

Q: And the TGI (ACHN renal)?
A: Its TGI is over 100 µM.

Q: And the GI50 (HL-60(TB) leukemia)?
A: The GI50 was 0.284 µM.

Q: And the TGI (HL-60(TB) leukemia)?
A: The TGI was 1.02 µM.

Q: What about the GI50 (HCT-15 colon) of the same compound?
A: Its GI50 is 0.455 µM.

Q: And the TGI (HCT-15 colon)?
A: Its TGI is over 100 µM.

Q: What about the GI50 (PC-3 prostate) of the same compound?
A: The GI50 was 0.45 µM.

Q: What about the TGI (PC-3 prostate) of the same compound?
A: Its TGI is over 37.2 µM.

Q: And the GI50 (RPMI-8226 leukemia)?
A: Its GI50 is 0.403 µM.

Q: What about the TGI (RPMI-8226 leukemia) of the same compound?
A: The TGI was 5.75 µM.

Q: What about the GI50 (SNB-75 CNS) of the same compound?
A: Its GI50 is 0.184 µM.

Q: What about the TGI (SNB-75 CNS) of the same compound?
A: Its TGI is 0.605 µM.

Q: And the GI50 (U251 CNS)?
A: Its GI50 is 0.507 µM.

Q: What about the TGI (U251 CNS) of the same compound?
A: The TGI was over 100 µM.

Q: What about the GI50 (786-0 renal) of the same compound?
A: The GI50 was 0.63 µM.

Q: And the TGI (786-0 renal)?
A: The TGI was 14.3 µM.

Q: What about the GI50 (COLO 205 colon) of the same compound?
A: The GI50 was 2.05 µM.

Q: What about the TGI (COLO 205 colon) of the same compound?
A: The TGI was 5.23 µM.

Q: And the GI50 (OVCAR-3 ovarian)?
A: The GI50 was 0.302 µM.

Q: And the TGI (OVCAR-3 ovarian)?
A: Its TGI is 1.66 µM.

Q: And the GI50 (SF-268 CNS)?
A: Its GI50 is 1.04 µM.

Q: And the TGI (SF-268 CNS)?
A: Its TGI is over 100 µM.

Q: What about the GI50 (HCC-2998 colon) of the same compound?
A: The GI50 was 1.96 µM.

Q: What about the TGI (HCC-2998 colon) of the same compound?
A: The TGI was over 100 µM.

Q: And the GI50 (SNB-19 CNS)?
A: The GI50 was 1.76 µM.

Q: And the TGI (SNB-19 CNS)?
A: The TGI was over 100 µM.

Q: What about the GI50 (NCI-H522 lung) of the same compound?
A: Its GI50 is 0.269 µM.

Q: And the TGI (NCI-H522 lung)?
A: The TGI was 5.18 µM.

Q: And the GI50 (OVCAR-5 ovarian)?
A: The GI50 was 3.22 µM.

Q: What about the TGI (OVCAR-5 ovarian) of the same compound?
A: The TGI was over 100 µM.

Q: What about the GI50 (MDA-MB-231 breast) of the same compound?
A: The GI50 was 1.5 µM.

Q: And the TGI (MDA-MB-231 breast)?
A: The TGI was 16.1 µM.

Q: What about the GI50 (NCI/ADR-RES ovarian) of the same compound?
A: Its GI50 is 0.454 µM.

Q: And the TGI (NCI/ADR-RES ovarian)?
A: Its TGI is over 100 µM.

Q: What about the GI50 (SR leukemia) of the same compound?
A: The GI50 was 0.339 µM.

Q: And the TGI (SR leukemia)?
A: Its TGI is 53 µM.

Q: What about the GI50 (T-47D breast) of the same compound?
A: The GI50 was 1.2 µM.

Q: And the TGI (T-47D breast)?
A: Its TGI is over 100 µM.

Q: And the GI50 (TK-10 renal)?
A: Its GI50 is 15 µM.

Q: And the TGI (TK-10 renal)?
A: The TGI was over 81.9 µM.

Q: And the GI50 (NCI-H23 lung)?
A: The GI50 was 0.864 µM.

Q: What about the TGI (NCI-H23 lung) of the same compound?
A: Its TGI is over 100 µM.

Q: And the GI50 (HOP-92 NSCLC)?
A: The GI50 was 0.276 µM.

Q: And the TGI (HOP-92 NSCLC)?
A: The TGI was 2.25 µM.
